The test system of data set [1] is Trypanosoma cruzi. The data set is described as follows: Anti-trypanosomal activity against Trypanosoma cruzi Y epimastigote forms assessed as inhibition of parasite growth after 72 hrs by microplate reader based assay. Type of data set: functional, organism-based. Conditions: for IC50: Trypanosoma cruzi, Y, 72 h.
Data set [2] concerns Trypanosoma cruzi. The data set is described as follows: Anti-trypanosomal activity against Trypanosoma cruzi Silvio X10 cl1 epimastigote forms assessed as inhibition of parasite growth after 72 hrs by microplate reader based assay. Format: functional, organism-based. Particulars: for IC50: Trypanosoma cruzi, Silvio X10 cl1, 72 h.
Data set [3] deals with Trypanosoma cruzi. The data set is described as follows: Anti-trypanosomal activity against Trypanosoma cruzi Bug 2149 cl10 epimastigote forms assessed as inhibition of parasite growth after 72 hrs by microplate reader based assay. Type of data set: functional, organism-based. Conditions: for IC50: Trypanosoma cruzi, Bug 2149 cl10, CL1-0, 72 h.
Data set [4] in a line: Cytotoxicity against human LL24 cells assessed as inhibition of cell growth after 24 hrs by MTT assay. Format: cell-based. Particulars: LL24, 24 h. On the technique in general: Tetrazolium dyes change colour on reduction, which living cells bring about.
Data set [5] in a line: Selectivity index, ratio of IC50 for human LL24 cells to IC50 for Trypanosoma cruzi Y epimastigote forms. Conditions: read-out: Ratio IC50. Format: toxicity, cell-based.
Data set [6] can be described thus: Selectivity index, ratio of IC50 for human LL24 cells to IC50 for Trypanosoma cruzi Silvio X10 cl1 epimastigote forms. Format: toxicity, cell-based. Conditions: read-out: Ratio IC50.
A short description of data set [7]: Selectivity index, ratio of IC50 for human LL24 cells to IC50 for Trypanosoma cruzi Bug 2149 cl10. Format: toxicity, cell-based. Particulars: read-out: Ratio IC50.

By IC50 is commonly meant the concentration that gives 50% inhibition.

On to `O=C(N/N=C/c1ccc([N+](=O)[O-])o1)C1CCCCC1`, for which the values for the log1/IC50 in the data set on Trypanosoma cruzi [1], with Trypanosoma cruzi [2] and with Trypanosoma cruzi [3] were 4.84, 4.86 and 4.89, respectively. The IC50 with Trypanosoma cruzi [1] was 14.4 µM; in the data set on Trypanosoma cruzi [2] it was 13.7 µM; in the data set on Trypanosoma cruzi [3], 12.8 µM; in data set [4], above 200 µM. The selectivity ratio in data set [5] is above 14; in data set [6] it was above 15; in data set [7] it was above 16.
On to `CCCCCC(=O)N/N=C/c1ccc([N+](=O)[O-])o1`, for which the log1/IC50 came to 4.99 in the data set on Trypanosoma cruzi [1], 5.01 with Trypanosoma cruzi [2] and 4.91 in the data set with Trypanosoma cruzi [3]. Further, the IC50 came to 10.2 µM with Trypanosoma cruzi [1], 9.72 µM with Trypanosoma cruzi [2], 12.2 µM in the data set with Trypanosoma cruzi [3] and 99 µM in data set [4]. Also, the selectivity ratio in data set [5] was found to be 10; in data set [6] it was 10; in data set [7] it was 8.
As for `CCCCCCCC(=O)N/N=C/c1ccc([N+](=O)[O-])o1`, the values for the log1/IC50 in the data set on Trypanosoma cruzi [1], in the data set with Trypanosoma cruzi [2] and in the data set on Trypanosoma cruzi [3] were 4.87, 4.83 and 4.84, respectively. In addition, the IC50 stood at 13.5 µM with Trypanosoma cruzi [1], 14.7 µM with Trypanosoma cruzi [2], 14.4 µM in the data set with Trypanosoma cruzi [3] and 91 µM in data set [4]. The selectivity ratio in data set [5] came out at 7; in data set [6], 6; in data set [7], 6.
For the compound `N#Cc1ccc(C(=O)N/N=C/c2ccc([N+](=O)[O-])o2)cc1`, the log1/IC50 was 4.64 with Trypanosoma cruzi [1], 4.43 with Trypanosoma cruzi [2] and 4.6 with Trypanosoma cruzi [3]. The IC50 was 23.1 µM in the data set on Trypanosoma cruzi [1], 37.4 µM in the data set on Trypanosoma cruzi [2], 25.3 µM in the data set with Trypanosoma cruzi [3] and above 200 µM in data set [4]. Further, the values for the selectivity ratio in data set [5], in data set [6] and in data set [7] were above 9, above 5 and above 8, respectively.
For `CCCCc1ccc(C(=O)N/N=C/c2ccc([N+](=O)[O-])o2)cc1`, the log1/IC50 with Trypanosoma cruzi [1] is 5.51; in the data set with Trypanosoma cruzi [2], 5.32; in the data set on Trypanosoma cruzi [3], 5.36. In addition, the IC50 in the data set with Trypanosoma cruzi [1] was 3.1 µM; in the data set on Trypanosoma cruzi [2] it was 4.75 µM; in the data set on Trypanosoma cruzi [3] it was 4.41 µM; in data set [4] it was above 200 µM. Besides, the selectivity ratio in data set [5] was above 64; in data set [6] it was above 42; in data set [7], above 45.
For the compound `O=C(N/N=C/c1ccc([N+](=O)[O-])o1)C1CCCC1`, the log1/IC50 with Trypanosoma cruzi [1] is given as 4.93; with Trypanosoma cruzi [2] it was 4.7; in the data set on Trypanosoma cruzi [3] it was 4.84. Moreover, the half-inhibitory concentration (IC50) in the data set on Trypanosoma cruzi [1] came out at 11.9 µM; in the data set with Trypanosoma cruzi [2], 19.9 µM; with Trypanosoma cruzi [3] it was 14.6 µM; in data set [4], 58 µM. The results for the selectivity ratio in data set [5], in data set [6] and in data set [7] were 5, 3 and 4, respectively.
As to `CCCc1ccc(C(=O)N/N=C/c2ccc([N+](=O)[O-])o2)cc1`, the log1/IC50 with Trypanosoma cruzi [1] is recorded as 5.04; in the data set on Trypanosoma cruzi [2] it was 4.99; in the data set with Trypanosoma cruzi [3], 5.01. Moreover, the IC50 stood at 9.09 µM in the data set with Trypanosoma cruzi [1], 10.3 µM in the data set with Trypanosoma cruzi [2], 9.8 µM with Trypanosoma cruzi [3] and 89 µM in data set [4]. For the same compound, the selectivity ratio amounted to 10 in data set [5], 9 in data set [6] and 9 in data set [7].
Take `CC(C)(C)OC(=O)N/N=C/c1ccc([N+](=O)[O-])o1`: the log1/IC50 with Trypanosoma cruzi [1] is listed as 5.03; with Trypanosoma cruzi [2] it was 4.86; in the data set on Trypanosoma cruzi [3] it was 4.91. The IC50 in the data set on Trypanosoma cruzi [1] was 9.41 µM; with Trypanosoma cruzi [2] it was 13.8 µM; in the data set with Trypanosoma cruzi [3], 12.2 µM; in data set [4], above 200 µM. In addition, the selectivity ratio in data set [5] was above 21; in data set [6], above 14; in data set [7], above 16.
As to `O=C(Cc1ccccc1)N/N=C/c1ccc([N+](=O)[O-])o1`, the results for the log1/IC50 with Trypanosoma cruzi [1], in the data set with Trypanosoma cruzi [2] and with Trypanosoma cruzi [3] were 4.96, 4.69 and 4.91, respectively. Further, the IC50 with Trypanosoma cruzi [1] came out at 11 µM; in the data set with Trypanosoma cruzi [2] it was 20.2 µM; in the data set on Trypanosoma cruzi [3] it was 12.3 µM; in data set [4] it was 97 µM. In addition, the figures for the selectivity ratio in data set [5], in data set [6] and in data set [7] were 8.83, 4.79 and 7.91, respectively.
On to `CC(C)c1ccc(C(=O)N/N=C/c2ccc([N+](=O)[O-])o2)cc1`, for which the log1/IC50 with Trypanosoma cruzi [1] is given as 5.41; in the data set with Trypanosoma cruzi [2] it was 5.22; in the data set on Trypanosoma cruzi [3], 5.04. In addition, the IC50 in the data set on Trypanosoma cruzi [1] is 3.91 µM; with Trypanosoma cruzi [2] it was 6.09 µM; in the data set with Trypanosoma cruzi [3], 9.04 µM; in data set [4], above 200 µM. For the same compound, the selectivity ratio is above 51 in data set [5], above 33 in data set [6] and above 22 in data set [7].
Regarding `Cc1cccc(C(=O)N/N=C/c2ccc([N+](=O)[O-])o2)c1`, the results for the log1/IC50 with Trypanosoma cruzi [1], in the data set on Trypanosoma cruzi [2] and in the data set with Trypanosoma cruzi [3] were 5, 4.56 and 4.61, respectively. In addition, the IC50 in the data set with Trypanosoma cruzi [1] was 9.89 µM; with Trypanosoma cruzi [2] it was 27.7 µM; with Trypanosoma cruzi [3], 24.8 µM; in data set [4], above 200 µM. In addition, the selectivity ratio in data set [5] is above 20; in data set [6], above 7; in data set [7], above 8.
As for `O=C(N/N=C/c1ccc([N+](=O)[O-])o1)c1ccccc1`, the log1/IC50 with Trypanosoma cruzi [1] is recorded as 4.9; in the data set with Trypanosoma cruzi [2], 4.51; in the data set on Trypanosoma cruzi [3], 4.85. Also, the IC50 with Trypanosoma cruzi [1] was 12.6 µM; in the data set with Trypanosoma cruzi [2], 31.1 µM; in the data set with Trypanosoma cruzi [3], 14.2 µM; in data set [4], 178 µM. In addition, the selectivity ratio in data set [5] turned out to be 14; in data set [6] it was 5.72; in data set [7], 12.5.
As to `O=C(N/N=C/c1ccc([N+](=O)[O-])o1)c1ccc(Cl)cc1`, the log1/IC50 with Trypanosoma cruzi [1] came to 5.04; with Trypanosoma cruzi [2], 4.7; with Trypanosoma cruzi [3] it was 4.84. The IC50 in the data set on Trypanosoma cruzi [1] was 9.15 µM; in the data set with Trypanosoma cruzi [2] it was 20 µM; in the data set with Trypanosoma cruzi [3] it was 14.5 µM; in data set [4], 187 µM. Moreover, the selectivity ratio was 20.4 in data set [5], 9.36 in data set [6] and 12.9 in data set [7].
For the compound `CN(C)c1ccc(C(=O)N/N=C/c2ccc([N+](=O)[O-])o2)cc1`, the log1/IC50 worked out at 4 in the data set with Trypanosoma cruzi [1], 4 in the data set with Trypanosoma cruzi [2] and 4.33 in the data set with Trypanosoma cruzi [3]. Further, the IC50 was 100 µM in the data set with Trypanosoma cruzi [1], 100 µM in the data set with Trypanosoma cruzi [2], 47.3 µM in the data set on Trypanosoma cruzi [3] and above 200 µM in data set [4]. For the same compound, the selectivity ratio in data set [5] was above 2; in data set [6], above 2; in data set [7] it was above 4.
In the case of `O=C(Cn1ccnc1[N+](=O)[O-])NCc1ccccc1` [BENZNIDAZOLE], the IC50 with Trypanosoma cruzi [1] was 40.4 µM; in data set [4] it was above 200 µM.
Regarding `O=C(N/N=C/c1ccc([N+](=O)[O-])o1)c1ccc(O)cc1` [NIFUROXAZIDE], the log1/IC50 in the data set on Trypanosoma cruzi [1] and with Trypanosoma cruzi [3] was 3.52 each time. Besides, the IC50 in the data set on Trypanosoma cruzi [1] is 300 µM; with Trypanosoma cruzi [3], 300 µM; in data set [4], above 200 µM. Further, the selectivity ratio in data set [5] and in data set [7] was above 1 each time.

The record behind these values is ChEMBL document CHEMBL3414454, “Designing and exploring active N'-[(5-nitrofuran-2-yl) methylene] substituted hydrazides against three Trypanosoma cruzi strains more prevalent in Chagas disease patients” (Eur J Med Chem, 2015).
